In the NIST ThermoML archive (doi:10.1021/je101316g):

Columns and labels:
[1] = refractive index (Na D-line) (dimensionless); conditions: 101.33 kPa, Liquid, Standard Abbe refractometry
[2] = 101.33 kPa, Liquid; for mass density: Vibrating tube method

CCCCCCn1cc[n+](CCC#N)c1.O=S(=O)([O-])c1ccccc1 [3-(2-cyanoethyl)-1-hexyl-1H-imidazolium benzenesulfonate]
Conditions	mass density, [2] [kg/m3]	refractive index, [1]	viscosity, [2] [mPa·s]
293.15 K	1226	–	7079.4
298.15 K	1222.7	1.527	4268.1
303.15 K	1219.4	1.5261	2865.6
308.15 K	1216.1	1.52499	1795.1
313.15 K	1212.8	1.52382	1170.4
318.15 K	1209.6	1.52266	781.3
323.15 K	1206.3	1.52145	537.6
328.15 K	1203	1.52025	359.9
333.15 K	1199.7	1.51899	274.2
338.15 K	1196.5	–	181
343.15 K	1193.3	–	133.6
348.15 K	1190.1	–	94.6
353.15 K	1187.8	–	70

CCCCCCn1cc[n+](CCC#N)c1.O=S(=O)([O-])C(F)(F)F
Conditions	mass density, [2] [kg/m3]	refractive index, [1]	viscosity, [2] [mPa·s]
293.15 K	1289.6	–	2243.6
298.15 K	1285.7	1.52975	1469.7
303.15 K	1281.9	1.52891	991.9
308.15 K	1278.3	1.52774	648.5
313.15 K	1274.6	1.52683	437.8
318.15 K	1271	1.5259	301.9
323.15 K	1267.4	1.52464	214
328.15 K	1263.8	1.52334	155.1
333.15 K	1260.2	1.52226	102.7
338.15 K	1256.6	–	77.4
343.15 K	1253.1	–	54.8
348.15 K	1249.2	–	40.1
353.15 K	1245.8	–	29.4

CCCCCCn1cc[n+](CCC#N)c1.O=C([O-])c1cccc(S(=O)(=O)O)c1 [3-(2-cyanoethyl)-1-hexyl-1H-imidazolium 3-sulfobenzoate]
Conditions	mass density, [2] [kg/m3]	refractive index, [1]	viscosity, [2] [mPa·s]
293.15 K	1248.1	–	19212
298.15 K	1244.6	1.52295	11463
303.15 K	1241.2	1.52221	7578.3
308.15 K	1238	1.52146	4765.8
313.15 K	1234.7	1.52029	3001.1
318.15 K	1231.5	1.51936	1953.3
323.15 K	1228.2	1.518	1189.9
328.15 K	1225	1.51666	830.5
333.15 K	1221.8	1.51502	557.3
338.15 K	1218.6	–	352.1
343.15 K	1215.4	–	225.5
348.15 K	1212.1	–	133.6
353.15 K	1208.9	–	92.8

CCCCCCCCCCCCOS(=O)(=O)[O-].CCCCCCn1cc[n+](CCC#N)c1 [3-(2-cyanoethyl)-1-hexyl-1H-imidazolium dodecyl sulfate]
Conditions	mass density, [2] [kg/m3]	refractive index, [1]	viscosity, [2] [mPa·s]
293.15 K	1101.1	–	–
298.15 K	1097.8	1.48409	13770
303.15 K	1094.5	1.48269	8252.7
308.15 K	1091.2	1.48125	5185.2
313.15 K	1088	1.47991	3354.6
318.15 K	1084.7	1.47863	2051
323.15 K	1081.5	1.47702	1301.8
328.15 K	1078.3	1.47566	846.3
333.15 K	1075.1	1.47422	566.9
338.15 K	1071.9	–	390.1
343.15 K	1068.8	–	274.9
348.15 K	1065.6	–	189.5
353.15 K	1062.6	–	133.6

CCCCC(CC)COC(=O)CC(C(=O)OCC(CC)CCCC)S(=O)(=O)[O-].CCCCCC[n+]1ccn(CCC#N)c1 (stereo not drawn)
Conditions	mass density, [2] [kg/m3]	refractive index, [1]	viscosity, [2] [mPa·s]
293.15 K	1092.7	–	–
298.15 K	1089	1.4797	19896
303.15 K	1085.4	1.47841	12117
308.15 K	1081.8	1.47709	7571.4
313.15 K	1078.3	1.4758	4586.7
318.15 K	1074.8	1.47447	2939.5
323.15 K	1071.3	1.47305	1947.7
328.15 K	1067.9	1.47171	1264.7
333.15 K	1064.4	1.47029	848.3
338.15 K	1061	–	579.4
343.15 K	1057.6	–	411.4
348.15 K	1054.2	–	278.6
353.15 K	1050.7	–	191.2
